From the NIST ThermoML archive (doi:10.1021/je500424b)

Conditions: Gas, Cylindrical cavity resonance method

C=CC [propene]
Conditions | speed of sound [m/s]
260 K, 164.45 kPa | 238.03
260 K, 185.32 kPa | 237.15
260 K, 206.56 kPa | 236.23
260 K, 227.97 kPa | 235.29
260 K, 248.96 kPa | 234.36
260 K, 275.35 kPa | 233.17
260 K, 293.11 kPa | 232.48
270 K, 144.04 kPa | 243.6
270 K, 173.01 kPa | 242.51
270 K, 206.19 kPa | 241.23
270 K, 236.28 kPa | 240.06
270 K, 262.89 kPa | 239
270 K, 263.03 kPa | 239
270 K, 302.89 kPa | 237.39
270 K, 333.53 kPa | 236.13
270 K, 361.31 kPa | 234.96
270 K, 389.41 kPa | 233.76
280 K, 149.29 kPa | 247.97
280 K, 188.35 kPa | 246.64
280 K, 226.29 kPa | 245.31
280 K, 267.79 kPa | 243.84
280 K, 308.73 kPa | 242.37
280 K, 354.13 kPa | 240.69
280 K, 397.57 kPa | 239.06
280 K, 438.3 kPa | 237.49
280 K, 438.33 kPa | 237.49
280 K, 478.89 kPa | 235.89
280 K, 519.72 kPa | 234.24
280 K, 556.25 kPa | 232.73
290 K, 141.01 kPa | 252.63
290 K, 199.13 kPa | 250.82
290 K, 257.68 kPa | 248.96
290 K, 313.39 kPa | 247.15
290 K, 372.8 kPa | 245.18
290 K, 434.96 kPa | 243.06
290 K, 495.22 kPa | 240.95
290 K, 553.22 kPa | 238.87
290 K, 616.94 kPa | 236.51
290 K, 672.07 kPa | 234.4
290 K, 677.98 kPa | 234.17
290 K, 695.54 kPa | 233.48
300 K, 134.71 kPa | 257.09
300 K, 182.3 kPa | 255.75
300 K, 260.81 kPa | 253.49
300 K, 344.4 kPa | 251.01
300 K, 425.25 kPa | 248.56
300 K, 505.72 kPa | 246.04
300 K, 582.66 kPa | 243.56
300 K, 661.1 kPa | 240.94
300 K, 740.35 kPa | 238.22
300 K, 826.4 kPa | 235.15
300 K, 903.31 kPa | 232.29
300 K, 960.98 kPa | 230.07
310 K, 142.07 kPa | 261.05
310 K, 235.24 kPa | 258.61
310 K, 325.91 kPa | 256.18
310 K, 424.89 kPa | 253.46
310 K, 520.89 kPa | 250.75
310 K, 623.06 kPa | 247.76
310 K, 713.38 kPa | 245.04
310 K, 810.73 kPa | 242.01
310 K, 906.76 kPa | 238.9
310 K, 952.69 kPa | 237.37
320 K, 142.67 kPa | 265.1
320 K, 210.07 kPa | 263.49
320 K, 279.66 kPa | 261.81
320 K, 349.85 kPa | 260.08
320 K, 425.07 kPa | 258.19
320 K, 509.07 kPa | 256.04
320 K, 596.12 kPa | 253.77
320 K, 677.09 kPa | 251.6
320 K, 756.59 kPa | 249.42
320 K, 834.83 kPa | 247.22
320 K, 905.02 kPa | 245.21
320 K, 976.94 kPa | 243.09
330 K, 151.93 kPa | 268.88
330 K, 227.66 kPa | 267.22
330 K, 302.35 kPa | 265.55
330 K, 380.89 kPa | 263.77
330 K, 455.62 kPa | 262.04
330 K, 550.82 kPa | 259.81
330 K, 642.65 kPa | 257.6
330 K, 732.74 kPa | 255.39
330 K, 821.61 kPa | 253.16
330 K, 912.04 kPa | 250.84
330 K, 1001.4 kPa | 248.5
